# From publication PMC6120666 (The EMBO Journal, 2018)
# Columns and labels:
# [1] = tested on: THP1Blue cells, TLR1/TLR2/TLR4; test: THP1Blue NF-κB-SEAP reporter assay, non-NOD agonists (Pam3CSK4, LPS, HKLM); format: cell-based, human; conditions: Pam3CSK4, LPS or HKLM
# Protocol: For HEKBlue assay, cells were seeded into clear 96‐well plates at 7.5 × 10^3 cells/well and allowed to attach for 48 h. On the day of the experiment, media was changed to 100 μl of HEKBlue detection media (InvivoGen). Inhibitors were diluted and added in 0.5 μl DMSO 15 min prior to the addition of 1 ng/ml L18‐MDP (InvivoGen). After 8–9 h, absorbance at 620 nm was measured using Victor3V plate reader (Perkin Elmer, Waltham, MA). Values of media‐only wells were subtracted and %inhibition for each compound concentration relative to the DMSO/L18‐MDP‐treated controls was calculated. […] After induction, 20 μl of media was mixed with 180 μl of QUANTI‐Blue reagent (InvivoGen) and incubated at 37°C for 3–4 h, followed by absorbance measurement at 620 nm. IC50 values were calculated as described for HEKBlue assay. […]
# For HEKBlue assay, cells were seeded into clear 96 well plates at 7.5x10^3 cells/well and allowed to attach for 48 h. […] After 8-9 h, absorbance at 620 nm was measured using Victor3V plate reader (Perkin Elmer, Waltham, MA). Values of media-only wells were subtracted and %inhibition for each compound concentration relative to the DMSO/L18-MDP-treated controls were calculated.
# Inhibition values + StDev were fitted by non-linear regression using Prism software (GraphPad Software, La Jolla, CA) to calculate IC50 values. […] IC50 values were calculated as described for HEKBlue assay. […]
# [2] = tested on: C57Bl6/J mice; parameters: method as in Nachbur et al, 2015; conditions: ref Nachbur et al, 2015; cited from earlier work
Structure (SMILES),effect on NF-κB responses to non-NOD agonists [1],increase in serum levels of TNF in mice challenged with MDP [2]
CCCS(=O)(=O)Nc1cc(-c2cc(-c3ccc(N4CCNCC4)cc3)cnc2N)cc(F)c1OC [CSLP37],no detected effect,
CCCS(=O)(=O)Nc1cc(-c2cc(-c3ccc(N4CCNCC4)cc3)cnc2N)cc(OC)c1OC [CSLP43],no detected effect,
"Cc1ccc(-c2nn(C(C)(C)CNC(=O)c3ccncc3)c3ncnc(N)c23)cc1 [WEHI‐345, reference compound]",,only partially inhibited
